Assay results taken from patent US20110212199A1, “AGENT FOR TREATING EYE DISEASES” (priority 2003, published 2011).

Columns and labels:
Type in all cases: in vivo, human
[1] = system: epidemic keratoconjunctivitis; assay: Example 29: epidemic keratoconjunctivitis
[2] = system: central chorioretinopathy (choriotetinitis); assay: Example 31: central chorioretinopathy
[3] = system: cataract; assay: Example 11: cataract patient; conditions: 1 mg/l, 1 drop (50 μl) once per day
[4] = system: chorioretinal atrophy; assay: Example 23: chorioretinal atrophy; conditions: person, 1 mg/l
[5] = system: chalazion; assay: Example 14: chalazion; conditions: child, right eye; 1 mg/l, 1 drop (50 μl) once every morning
[6] = system: asthenopia; assay: Example 30: asthenopia; conditions: person; 10 mg/l, once (50 μl) a day; 3 weeks
[7] = system: pigmentary retinal degeneration; assay: Example 13: pigmentary retinal degeneration; conditions: after 77 days
Procedure: The patient is person, and has artificial intraocular lens inserted eyes already carried out a cataract operation. Due to pigmentary retinal degeneration, narrowing of visual field occurs. […] After 77 days from initiation of administration, it could be confirmed that both of visual acuity and visual field were improved. Also, when the visual fields were measured by OCTOPUS 1-2-3 static perimeter before administration and after 77 days from the initiation of the administration, and they were compared, it can be confirmed to be improved. (see FIGS. 27 to 30)

**Q.** Which eye discharge ([1]; 1 mg/l once a day, fourth day) does the source give for `C[C@]12CC[C@@H]3c4ccc(O)cc4CC[C@H]3[C@@H]1CC[C@@H]2O` [17β-estradiol] here?
**A.** eye discharge was increased

**Q.** What about the keratitis superficialis diffusa ([1]; person, 1 mg/l, 1 drop (50 μl) once a day) of the same compound?
**A.** cured at the fourth day

**Q.** And the “visual acuity Vs” value ([2]; after treatment, before 0.1)?
**A.** 0.3

**Q.** And the Vs corrected vision ([2]; after treatment, before 0.8)?
**A.** 1.5

**Q.** What about the macular edema ([2]; person, left eye, 10 mg/l, 1 drop (50 μl) twice a day, a week) of the same compound?
**A.** macular edema was lightened

**Q.** What about the “opacity of cataract, slit lamp microscope” value [3] of the same compound?
**A.** opacity of cataract had been reduced

**Q.** And the visual acuity [3]?
**A.** improvement in visual acuity was admitted

**Q.** And the “vision after correction, left eye” value ([4]; 1 drop (50 μl) once a day for 1 month, before 0.1)?
**A.** 0.3

**Q.** And the “vision after correction, right eye” value ([4]; 50 μl once a day for 1 month, before 0.08 (n·c))?
**A.** 0.2

**Q.** What about the “time until tumor disappeared” value [5] of the same compound?
**A.** 12 days

**Q.** And the asthenopia [6]?
**A.** asthenopia was lightened

**Q.** And the “visual fields by OCTOPUS 1-2-3 static perimeter” value [7]?
**A.** improved

**Q.** And the “Vs vision after correction” value ([7]; before 0.8)?
**A.** 1.0

**Q.** What about the “visual acuity Vs” value ([7]; before 0.8) of the same compound?
**A.** 0.5
